From US10201556B2, “Combination for use in treating diseases or conditions associated with melanoma, or treating diseases or conditions associated with activated B-raf pathway” (InteRNA Technologies B.V., priority 2012, dated 2019)

Assays:
[1] = test system: ERK1; test: Western blotting of ERK1 protein levels; assay type: cell-based, human
Procedure: Transfection was performed as described in Example 4 in 6-well format. Proteins were isolated using RIPA buffer (50 mM Tris pH 8.0, 150 mM NaCL, 1% NP-40, 0.5% Sodium deoxycholate, 0.1% SDS), supplemented with Protease Inhibitor Cocktail (Sigma) and Halt™ Phosphatase Inhibitor Cocktail (Pierce/Thermo Scientific). Fifteen μg protein was loaded on a 12% Mini-PROTEAN® TGX™ Precast Gel (Bio-Rad), and proteins were transferred to Immun-Blot PVDF Membrane (Bio-Rad). Membranes were blocked in 5% milk or 5% BSA in TBS-T, and incubated O/N at 4° C. with primary antibodies against α-tubulin (1:5000), BRAF, pERK1/2, CDK4, RRM2 (all 1:1000), BCL-2 (1:500) (Santa Cruz), total-ERK1/2 (1:2000), BIRC5, AURKB (1:1000) (Cell Signaling), ERK1 (1:2000) (GeneTex). After incubation with appropriate secondary antibodies and western blot chemiluminescence substrate ECL (Pierce/Thermo Scientific), membranes were exposed to CL-XPosure Film (Pierce/Thermo Scientific).

[2] = test system: BRAFV600E mutant melanoma cell lines SKMEL-28, SKMEL-57 and M249; test: MTS cell viability after miR-3157 mimic transfection, vemurafenib-sensitive lines; assay type: cell-based; settings: SKMEL-28, SKMEL-57, M249; 10 nM mimic, 72 hours (FIG. 11a)
Procedure: (§1) miR-3157 broadly affects melanoma cell line viability. Melanoma cell lines were divided into those that have the BRAFV600E mutation and are sensitive (a), intrinsically resistant (b) or acquired resistance to vemurafenib (c). Cell lines were transfected in triplicate with control miRNA or miR-3157 mimics (10 nM; n=2). Mock is transfectant only. Cell viability was determined using the MTS assay and calculated relative to mock transfected cells.
(§2) A375 cells were obtained from the Hubrecht Institute (Utrecht, The Netherlands); SKMEL-28, A2058 and RPMI-7951 were from the ATCC; SKMEL-57 was a gift from Dr. Patricia Groenen (Radboud University Nijmegen Medical Centre, The Netherlands); for cell line characteristics of M249, M249-AR4, M233 and M376 see (Atefi et al. 2011). A375-R, with in vitro acquired resistance to vemurafenib, was established in our lab by clonal selection of cells continually exposed to 1 μM vemurafenib. A375, A375-R, SKMEL-28, A2058 and SKMEL-57 were grown in DMEM GlutaMAX™-I (Gibco®), all other cell lines in RPMI-1640 (Gibco®). Media was supplemented with 10% FBS (Sigma), and cells were maintained in a humidified 37° C. incubator (Thermo Scientific) with 5% CO2. […]
(§3) Cells were seeded in 96-well plates and transfected the next day. […] Read-out was performed at 490 nm on a Multiskan FC plate reader (Thermo Scientific) at 72 hours post transfection.

[3] = test system: A375-R, M249-AR4 and M376; test: MTS cell viability after miR-3157 mimic transfection, acquired resistance lines; assay type: cell-based; settings: 10 nM mimic, 72 hours (FIG. 11c)
Procedure: as §1, §2, §3

[4] = test system: M376 melanoma cell line; test: Anti-proliferative effect of small molecules, MTS assay; assay type: cell-based; settings: M376, in vivo acquired resistance
Procedure: (§4) The anti-proliferative effect of small molecules in melanoma cell lines was determined with V600E BRAF inhibitor, vemurafenib (PLX-4032, 51267, Selleck) and MEK inhibitor, selumetinib (AZD-6244, S1008, Selleck). For each cell line optimal growth conditions were determined prior to the experiment. Cells were plated in a 96-well plate at 3000 cells per well (100 uL) and were grown at 37 C, 5% CO2. Small molecule mix (50 uL per well) was made for each concentration in medium. Cells were treated in triplicate 24 hours after plating. After 72 hours medium was replaced and viability was measured with the MTS assay (Promega) according to manufacturer's instructions. Cell viability inhibition is normalized against loading control (0.1% DMSO) and GraphPad Prism was used to fit the curve and calculate GI50 values.
(§5) A375 cells were obtained from the Hubrecht Institute (Utrecht, The Netherlands); SKMEL-28, A2058 and RPMI-7951 were from the ATCC; SKMEL-57 was a gift from Dr. Patricia Groenen (Radboud University Nijmegen Medical Centre, The Netherlands); for cell line characteristics of M249, M249-AR4, M233 and M376 see (Atefi et al. 2011). A375-R, with in vitro acquired resistance to vemurafenib, was established in our lab by clonal selection of cells continually exposed to 1 μM vemurafenib. A375, A375-R, SKMEL-28, A2058 and SKMEL-57 were grown in DMEM GlutaMAX™-I (Gibco®), all other cell lines in RPMI-1640 (Gibco®). Media was supplemented with 10% FBS (Sigma), and cells were maintained in a humidified 37° C. incubator (Thermo Scientific) with 5% CO2. Vemurafenib (PLX4032; Selleck Chemicals) was diluted in DMSO to a stock concentration of 10 mM.

[5] = test system: SKMEL-57 melanoma cell line; test: as above; assay type: cell-based; settings: SKMEL-57, vemurafenib sensitive
Procedure: as §4, §5

[6] = test system: SKMEL-28 melanoma cell line; test: as above; assay type: cell-based; settings: Homo sapiens, SK-MEL-28, SKMEL-28, vemurafenib sensitive
Procedure: as §4, §5

[7] = test system: M233 melanoma cell line; test: as above; assay type: cell-based; settings: M233, vemurafenib resistant
Procedure: as §4, §5

Compound	ERK1 protein levels ([1]; A375 cells, increasing concentrations of mimic (FIG. 12c))	ERK1 protein levels ([1]; A2058, M249, M249-AR4 and M376, increasing concentrations of mimic (FIG. 14a))	cell viability relative to mock transfected cells [2]	cell viability relative to mock transfected cells [3]	GI50 [4] [nM]	GI50 [5] [nM]	GI50 [6] [nM]	GI50 [7] [nM]
hsa-miR-3157-5p: mature miRNA mimic, SEQ ID NO 6 UUCAGCCAGGCUAGUGCAGUCU (listed as RNA, chemistry not given here)	most pronounced	not very strongly affected	strongly reduced cell viability	reduced viability	–	–	–	–
CCCS(=O)(=O)Nc1ccc(F)c(C(=O)c2c[nH]c3ncc(-c4ccc(Cl)cc4)cc23)c1F [Vemurafenib, N-(3-{[5-(4-chlorophenyl)-1H-pyrrolo[2,3-b]pyridin-3-yl]carbonyl}-2,4-difluorophenyl)propane-1-sulfonamide]	–	–	–	–	> 10000	~800	~600	> 10000
